Patent US20080255153A1, “New compounds” (BIOVITRUM AB (publ), priority 2007, published 2008)

Molecular target: T1, stearoyl-CoA desaturase (SCD) (Rattus norvegicus, UniProt P07308)
T1 construct: 0.032 mg/ml rat liver microsomes (total protein content); from tissue
T1 sequence (P07308 1-358): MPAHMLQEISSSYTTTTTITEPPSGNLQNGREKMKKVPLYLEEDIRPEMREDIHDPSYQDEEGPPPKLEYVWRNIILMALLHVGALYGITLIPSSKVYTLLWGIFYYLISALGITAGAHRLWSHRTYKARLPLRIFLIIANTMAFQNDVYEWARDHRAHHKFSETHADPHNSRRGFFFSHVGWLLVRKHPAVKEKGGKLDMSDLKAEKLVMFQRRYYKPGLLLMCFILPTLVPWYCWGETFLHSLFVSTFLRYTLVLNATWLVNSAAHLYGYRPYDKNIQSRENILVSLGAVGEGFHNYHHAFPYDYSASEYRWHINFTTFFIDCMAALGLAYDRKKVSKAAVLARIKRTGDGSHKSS
Experiment: Tritium release screening assay for inhibition of stearoyl-CoA desaturase activity in rat liver microsomes (96- or 384-well)
Assay type: biochemical
Conditions: [3H]-stearoyl-CoA, 20 min pre-incubation, 20 min reaction
Text: The tritium release assay for the measurement of SCD activity is thus well documented in the literature. Descriptions on how these finding have been used to produce standard screening assays in 96-well plates are also available [Brownlie, Hayden, Attie, Ntambi, Gray-Keller, & Miyazaki (2001) WO 01/62954; Wu, Gallipoli, Gallagher, & Gardell (2004) WO 2004/04776]. We have adopted the tritium release assay to a 384-well format to improve throughput even further.
Microsomal preparations were prepared from the livers of Male Sprague-Dawley rats that had been fasted and then refed a low fat/high carbohydrate diet. The preparation of microsomes was adopted from Seifried and Gaylor [Seifried & Gaylor (1976) J. Biol. Chem. 251, 7468-7473]. Confirmation of compound activity on human material was made based on microsomal preparations from HepG2 cells. All other reagents were purchased from commercial sources. The assay was run in 96 or 384-well microtiter plates by consecutive additions of a test compound solution, a microsomal preparation solution and a substrate containing solution. The final concentrations of all reagents in a total assay volume of 40 μl per well (in the 384-well plate format) were: • 0.11 μM [^3H]-stearoyl-CoA • 50 nM stearoyl-CoA • 0.032 mg/ml rat liver microsomes (total protein content) • 2 mM NADH • 220 mM sucrose • 44 mM NaH2PO4 pH adjusted to 6.8 • 130 mM KCl • 1.3 mM GSH • 0.05 mM CoA • 0.1% BSA • 0.29 mM nicotine amide • 15 mM NaF • 1.1 mM ATP • 4.9 mM MgCl2 • 0.002% Tween-20 • A test compound at various concentrations (which also adds 0.5-2% DMSO to the final solution)
The test compounds were pre-incubated for 20 minutes with the microsomal preparation prior to starting the reaction by the addition of substrate. The enzymatic reaction was allowed to proceed for 20 minutes and then optionally slowed by an addition of 40 μl of a 2% DMSO solution in water containing a known inhibitor of SCD activity. The solutions were mixed and then 70 μl of the total 80 μl were transferred to a filter plate containing predispensed activated charcoal. The plate was then centrifuged and the filtrate collected in a collector plate to which 40 μl of Optiphase Supermix was added per well. Following an 18 h equilibration time at room temperature the plate was read in a Trilux MicroBeta (two minutes counting time per well). […] The inhibitory potency or IC50 values of test compounds on SCD activity were defined by applying the same assay in the presence of sub-nM to sub-mM compound concentrations.

IC50 [µM] | Structure (SMILES)
0.14 | Cc1nc2c(C(=O)NCCOCCO)cnn2cc1Cc1ccc(F)c(OC(F)(F)F)c1 [Example 38, 6-[4-Fluoro-3-(trifluoromethoxy)benzyl]-N-[2-(2-hydroxyethoxy)ethyl]-5-methyl-pyrazolo[1,5-α]pyrimidine-3-carboxamide]
0.61 | Cc1c(Cc2ccccc2)cnc2c(C(=O)NCCOCCO)cnn12 [Example 39, 6-Benzyl-N-[2-(2-hydroxyethoxy)ethyl]-7-methylpyrazolo[1,5-α]pyrimidine-3-carboxamide]
0.091 | NC(=O)COC(=O)c1cnn2cc(Cc3ccc(F)c(C(F)(F)F)c3)cnc12 [Example 48, 2-Amino-2-oxoethyl 6-[4-fluoro-3-(trifluoromethyl)benzyl]pyrazolo[1,5-α]pyrimidine-3-carboxylate]

The remaining lines, values behind:

Structure (SMILES) | IC50 [µM]
O=CNCCNC(=O)c1cnn2cc(Cc3ccc(Br)cc3)cnc12 [Example 25, 6-(4-Bromobenzyl)-N-[2-(formylamino)ethyl]pyrazolo[1,5-α]pyrimidine-3-carboxamide] | 0.027
NC(=O)CNC(=O)c1cnn2cc(Sc3cccc(C(F)(F)F)c3)cnc12 [Example 50, N-(2-Amino-2-oxoethyl)-6-{[3-(trifluoromethyl)phenyl]thio}pyrazolo[1,5-α]-pyrimidine-3-carboxamide] | 0.48
NC(=O)CNC(=O)c1cnn2cc(Cc3cccc(Cl)c3Cl)cnc12 [Example 56, N-(2-Amino-2-oxoethyl)-6-(2,3-dichlorobenzyl)pyrazolo[1,5-α]pyrimidine-3-carboxamide] | 0.022
